Target: acyl-CoA:cholesterol acyltransferase (ACAT)
Experiment: in vitro ACAT inhibition test: radio-labeled cholesteryl oleate formed from radio-labeled oleic acid in intestinal microsomes
Type: biochemical
Details: concentration required to inhibit cholesteryl oleate formation to 50% of control; tissue preparation containing rabbit intestinal microsomes
Method: The ability of representative compounds of the present invention to inhibit ACAT was measured using an in vitro test more fully described in Field, F. J. and Salone, R. G., Biochemica et Biophysica 712: 557-570 (1982). The test assesses the ability of a test compound to inhibit the acylation of cholesterol by oleic acid by measuring the amount of radio-labeled cholesterol oleate formed from radio-labeled oleic acid in a tissue preparation containing rabbit intestinal microsomes.
The data appear in the Table where they are expressed as IC₅₀ values; i.e. the concentration of test compound required to inhibit cholesteryl oleate formation to 50% of control.

Row | Structure (SMILES) | IC50 [nM]
1 | Cc1ccc(OCCCC(C)(C)C(=O)NC(C)c2ccccn2)cc1 (centres unmarked) [Example 1, 2,2-dimethyl-5-(4-methylphenoxy)-N-[1-(2-pyridinyl)ethyl]pentanamide] | 4800
2 | CCCCc1ccc(OCCCC(C)(C)C(=O)Nc2ccccc2OC)cc1 [Example 2, 5-(4-butylphenoxy)-N-(2-methoxyphenyl)-2,2-dimethylpentanamide] | 4300
3 | CCCCc1ccc(OCCCC(C)(C)C(=O)NC(C)c2ccccn2)cc1 (centres unmarked) [Example 5, 5-(4-butylphenoxy)-2,2-dimethyl-N-[1-(2-pyridinyl)ethyl]pentanamide] | 800
4 | Cc1ccc(NC(=O)C(C)(C)CCCOc2ccc(C(C)(C)C)cc2)c(C)c1 [Example 8, 5-[4-(1,1-dimethylethyl)phenoxy]-N-(2,4-dimethylphenyl)-2,2-dimethylpentanamide] | 1400
5 | CC(C)(CCCOc1ccc(C(C)(C)C)cc1)C(=O)Nc1ccc(F)cc1F [Example 9, N-(2,4-difluorophenyl)-5-[4-(1,1-dimethylethyl)phenoxy]-2,2-dimethylpentanamide] | 1200
6 | CC(NC(=O)C(C)(C)CCCOc1ccc(C(C)(C)C)cc1)c1ccccn1 (centres unmarked) [Example 12, 5-[4-(1,1-dimethylethyl)phenoxy]-2,2-dimethyl-N-[1-(2-pyridinyl)ethyl]pentanamide] | 700
7 | CCC(C)(C)c1ccc(OCCCC(C)(C)C(=O)NC(C)c2ccccn2)cc1 (centres unmarked) [Example 13, 5-[4-(1,1-dimethylpropyl)phenoxy]-2,2-dimethyl-N-[1-(2-pyridinyl)ethyl]pentanamide] | 160
8 | CCCCCCc1ccc(OCCCC(C)(C)C(=O)NC(C)c2ccccn2)cc1 (centres unmarked) [Example 15, 5-(4-hexylphenoxy)-2,2-dimethyl-N-[1-(2-pyridinyl)ethyl]pentanamide] | 700
9 | CCCCCCCCc1ccc(OCCCC(C)(C)C(=O)NC(C)c2ccccn2)cc1 (centres unmarked) [Example 17, 2,2-dimethyl-5-(4-octylphenoxy)-N-[1-(2-pyridinyl)ethyl]pentanamide] | 450

More lines, now with the values ahead:

Row | IC50 [nM] | Structure (SMILES)
10 | 2400 | CCCCc1ccc(OCCCC(C)(C)C(=O)Nc2ccc(C)cc2OC)cc1 [Example 3, 5-(4-butylphenoxy)-N-(2-methoxy-4-methylphenyl)-2,2-dimethylpentanamide]
11 | 460 | CCCCc1ccc(OCCCC(C)(C)C(=O)Nc2c(OC)cc(OC)cc2OC)cc1 [Example 4, 5-(4-butylphenoxy)-2,2-dimethyl-N-(2,4,6-trimethoxyphenyl)-pentanamide]
12 | 9000 | CCCCc1ccc(OCCCC(C)(C)C(=O)Nc2c(OC)ncnc2OC)cc1 [Example 7, 5-(4-butylphenoxy)-N-(4,6-dimethoxy-5-pyrimidinyl)-2,2-dimethylpentanamide]
13 | 44 | COc1cc(OC)c(NC(=O)C(C)(C)CCCOc2ccc(C(C)(C)C)cc2)c(OC)c1 [Example 10, 5-[4-(1,1-dimethylethyl)phenoxy]-2,2-dimethyl-N-(2,4,6-trimethoxyphenyl)pentanamide]
14 | 800 | CCCCCCCCc1ccc(OCCCC(C)(C)C(=O)Nc2c(OC)cc(OC)cc2OC)cc1 [Example 16, 2,2-dimethyl-5-(4-octylphenoxy)-N-(2,4,6-trimethoxyphenyl)pentanamide]
